Data: ChEMBL document CHEMBL1201862, “PubChem BioAssay data set” (2004)
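Protocol summary: plate cells (96-well), add compound at 5 concentrations, incubate 48 h, interpolate endpoints linearly. GI50: concentration for 50% inhibition of growth.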 The source made the active and inactive calls. Rule as the data show it: active = GI50 up to about 1.1 µM and inactive = higher.

What was measured:
Experiment in all cases: DTP human tumour cell line panel, 48 h
CCRF-CEM = system: CCRF-CEM
HCC 2998 = system: HCC 2998
A549 = system: A549
MDA-MB-231 = system: MDA-MB-231
NCI-H23 = system: NCI-H23
SR = system: SR
K562 = system: K562
HOP-62 = system: HOP-62
SF-539 = system: SF-539
COLO 205 = system: COLO 205
EKVX = system: EKVX
HCT-116 = system: HCT-116
HCT-15 = system: HCT-15
HT-29 = system: HT-29
CAKI-1 = system: CAKI-1
SK-MEL-2 = system: SK-MEL-2
OVCAR-4 = system: OVCAR-4
HL-60 = system: HL-60
SNB-75 = system: SNB-75
UACC-257 = system: UACC-257

Compound	GI50 (CCRF-CEM)	GI50 (HCC 2998)	GI50 (A549)	GI50 (MDA-MB-231)	GI50 (NCI-H23)	GI50 (SR)	GI50 (K562)	GI50 (HOP-62)	GI50 (SF-539)	GI50 (COLO 205)	GI50 (EKVX)	GI50 (HCT-116)	GI50 (HCT-15) [µM]	GI50 (HT-29)	GI50 (CAKI-1)	GI50 (SK-MEL-2)	GI50 (OVCAR-4)	GI50 (HL-60)	GI50 (SNB-75)	GI50 (UACC-257)
Cc1ccc(S(=O)(=O)N2CCSCCSCCSCCSCC2)cc1	64.3 µM (inactive)	> 100 µM (inactive)	61.1 µM (inactive)	19.5 µM (inactive)	40.1 µM (inactive)	> 74.3 µM (inactive)	> 71 µM (inactive)	> 40.6 µM (inactive)	26.9 µM (inactive)	> 100 µM (inactive)	48.5 µM (inactive)	40 µM (inactive)	> 100	> 100 µM (inactive)	22.4 µM (inactive)	> 34.6 µM (inactive)	27.8 µM (inactive)	99.8 µM (inactive)	11.9 µM (inactive)	> 91.2 µM (inactive)
COc1cc2c(c(O)c1OC)C(=O)[C@@H]1CCC(=O)N1C2	> 100 µM (inactive)	> 100 µM (inactive)	> 100 µM (inactive)	> 100 µM (inactive)	> 100 µM (inactive)	> 100 µM (inactive)	> 100 µM (inactive)	> 100 µM (inactive)	> 100 µM (inactive)	> 100 µM (inactive)	> 100 µM (inactive)	> 100 µM (inactive)	> 100	> 100 µM (inactive)	> 100 µM (inactive)	> 100 µM (inactive)	> 100 µM (inactive)	> 100 µM (inactive)	> 100 µM (inactive)	> 100 µM (inactive)
CCOc1ccc(-n2c(=O)n3c(Nc4ccc(Cl)cc4)nc4c(c(=O)n(C)c(=O)n4C)n3c2=O)cc1	20.8 µM (inactive)	19.5 µM (inactive)	75.5 µM (inactive)	15.5 µM (inactive)	27.5 µM (inactive)	21 µM (inactive)	29.6 µM (inactive)	71.1 µM (inactive)	41 µM (inactive)	21.6 µM (inactive)	24.9 µM (inactive)	19.5 µM (inactive)	20.7	27.7 µM (inactive)	38.5 µM (inactive)	26.4 µM (inactive)	53 µM (inactive)	22 µM (inactive)	13.7 µM (inactive)	23.5 µM (inactive)
COc1ccc2c(c1)[C@@H]1c3cc(OC)c(OC)cc3CCN1CCC2	87.7 µM (inactive)	> 100 µM (inactive)	> 100 µM (inactive)	> 100 µM (inactive)	> 100 µM (inactive)	76 µM (inactive)	65.3 µM (inactive)	> 100 µM (inactive)	> 100 µM (inactive)	> 100 µM (inactive)	> 100 µM (inactive)	76.2 µM (inactive)	79.4	93.1 µM (inactive)	> 100 µM (inactive)	> 100 µM (inactive)	35.3 µM (inactive)	> 100 µM (inactive)	> 100 µM (inactive)	19.7 µM (inactive)
O=C(c1ccccc1)N1C(=O)N(c2ccccc2)C(=N/c2ccccc2)/C1=N\c1ccccc1	50.7 µM (inactive)	28.8 µM (inactive)	42.2 µM (inactive)	> 100 µM (inactive)	> 100 µM (inactive)	17.8 µM (inactive)	7.36 µM (inactive)	52.4 µM (inactive)	> 100 µM (inactive)	70.5 µM (inactive)	> 100 µM (inactive)	47.9 µM (inactive)	64	33.7 µM (inactive)	48.1 µM (inactive)	29.9 µM (inactive)	23.4 µM (inactive)	> 100 µM (inactive)	> 100 µM (inactive)	37.8 µM (inactive)
